Results published in patent US20100041089A1, “IMPROVED METHOD FOR DETECTING CHEMICAL […]” (priority 2006, published 2010).

Tested on: yeast genes (expressed mRNA)
Test: DNA chip measurement of expressed mRNA of yeast genes after culture with a toxic chemical substance
Format: cell-based, Saccharomyces cerevisiae S288C
Summary of the method: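 Expression is given as treated/untreated fluorescence ratio on a whole-genome yeast DNA chip, a ratio of two or more being significant. Log-phase S288C cultures in YPD at 25 °C received the chemical for 2 h at a dose that slows growth without killing. mRNA was reverse-transcribed with Cy3- or Cy5-dUTP.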

For `C=CC=O` [(14), Acrolein], the “The level of expressed mRNA in the presence of chemical substance/The level of expressed mRNA in the absence of chemical substance” value (yeast gene YKL071W, cultured two hours with substance) was 21.9, the “The level of expressed mRNA in the presence of chemical substance/The level of expressed mRNA in the absence of chemical substance” value (yeast gene YKL086W, cultured two hours with substance) was 2.9 and the “The level of expressed mRNA in the presence of chemical substance/The level of expressed mRNA in the absence of chemical substance” value (yeast gene YKL151C, cultured two hours with substance) was 1.3. For the same molecule, the “The level of expressed mRNA in the presence of chemical substance/The level of expressed mRNA in the absence of chemical substance” value (yeast gene YKL153W, cultured two hours with substance) was 1.1, the “The level of expressed mRNA in the presence of chemical substance/The level of expressed mRNA in the absence of chemical substance” value (yeast gene YKL195W, cultured two hours with substance) was 1.6 and the “The level of expressed mRNA in the presence of chemical substance/The level of expressed mRNA in the absence of chemical substance” value (yeast gene YKL198C) was 6.6. The “The level of expressed mRNA in the presence of chemical substance/The level of expressed mRNA in the absence of chemical substance” value (yeast gene YKR049C, cultured two hours with substance) was 2.1, the “The level of expressed mRNA in the presence of chemical substance/The level of expressed mRNA in the absence of chemical substance” value (yeast gene YKR076W) was 14.7 and the “The level of expressed mRNA in the presence of chemical substance/The level of expressed mRNA in the absence of chemical substance” value (yeast gene YKR091W, cultured two hours with substance) was 1.9. For the same molecule, the “The level of expressed mRNA in the presence of chemical substance/The level of expressed mRNA in the absence of chemical substance” value (yeast gene YKR097W, cultured for two hours with substance) was 2.1, the “The level of expressed mRNA in the presence of chemical substance/The level of expressed mRNA in the absence of chemical substance” value (yeast gene YLL056C, cultured two hours with substance) was 11.0 and the “The level of expressed mRNA in the presence of chemical substance/The level of expressed mRNA in the absence of chemical substance” value (yeast gene YLL060C (detoxification protein gene)) was 10.6. The “The level of expressed mRNA in the presence of chemical substance/The level of expressed mRNA in the absence of chemical substance” value (yeast gene YLL060C (stress protein genes)) was 10.6, the “The level of expressed mRNA in the presence of chemical substance/The level of expressed mRNA in the absence of chemical substance” value (yeast gene YLR031W, cultured two hours with substance) was 1.5 and the “The level of expressed mRNA in the presence of chemical substance/The level of expressed mRNA in the absence of chemical substance” value (yeast gene YLR054C, cultured two hours with substance) was 1.1. For the same molecule, the “The level of expressed mRNA in the presence of chemical substance/The level of expressed mRNA in the absence of chemical substance” value (yeast gene YLR149C, cultured two hours with substance) was 1.2, the “The level of expressed mRNA in the presence of chemical substance/The level of expressed mRNA in the absence of chemical substance” value (yeast gene YLR152C, cultured two hours with substance) was 1.2 and the “The level of expressed mRNA in the presence of chemical substance/The level of expressed mRNA in the absence of chemical substance” value (yeast gene YLR194C, cultured two hours with substance) was 1.2. For the same molecule, the “The level of expressed mRNA in the presence of chemical substance/The level of expressed mRNA in the absence of chemical substance” value (yeast gene YLR205C, cultured two hours with substance) was 2.4, the “The level of expressed mRNA in the presence of chemical substance/The level of expressed mRNA in the absence of chemical substance” value (yeast gene YLR280C, cultured two hours with substance) was 0.5 and the “The level of expressed mRNA in the presence of chemical substance/The level of expressed mRNA in the absence of chemical substance” value (yeast gene YLR324W, cultured two hours with substance) was 1.4. The “The level of expressed mRNA in the presence of chemical substance/The level of expressed mRNA in the absence of chemical substance” value (yeast gene YLR350W, cultured two hours with substance) was 2.8, the “The level of expressed mRNA in the presence of chemical substance/The level of expressed mRNA in the absence of chemical substance” value (yeast gene YLR387C, cultured two hours with substance) was 1.7 and the “The level of expressed mRNA in the presence of chemical substance/The level of expressed mRNA in the absence of chemical substance” value (yeast gene YLR408C, cultured two hours with the substance) was 2.1. The “The level of expressed mRNA in the presence of chemical substance/The level of expressed mRNA in the absence of chemical substance” value (yeast gene YLR460C, cultured two hours with substance) was 3.5, the “The level of expressed mRNA in the presence of chemical substance/The level of expressed mRNA in the absence of chemical substance” value (yeast gene YML054C, cultured for two hours with substance) was 2.1 and the “The level of expressed mRNA in the presence of chemical substance/The level of expressed mRNA in the absence of chemical substance” value (yeast gene YML087C, cultured for two hours with substance) was 2.1. For the same molecule, the “The level of expressed mRNA in the presence of chemical substance/The level of expressed mRNA in the absence of chemical substance” value (yeast gene YML117W, cultured two hours with substance) was 0.8, the “The level of expressed mRNA in the presence of chemical substance/The level of expressed mRNA in the absence of chemical substance” value (yeast gene YMR009W, cultured two hours with substance) was 1.9 and the “The level of expressed mRNA in the presence of chemical substance/The level of expressed mRNA in the absence of chemical substance” value (yeast gene YMR067C, cultured two hours with substance) was 1.5. For the same molecule, the “The level of expressed mRNA in the presence of chemical substance/The level of expressed mRNA in the absence of chemical substance” value (yeast gene YMR090W, cultured two hours with substance) was 6.5, the “The level of expressed mRNA in the presence of chemical substance/The level of expressed mRNA in the absence of chemical substance” value (yeast gene YMR095C, cultured two hours with substance) was 2.2 and the “The level of expressed mRNA in the presence of chemical substance/The level of expressed mRNA in the absence of chemical substance” value (yeast gene YMR096W, DNA repair protein genes, cultured two hours with substance) was 4.7. For the same molecule, the “The level of expressed mRNA in the presence of chemical substance/The level of expressed mRNA in the absence of chemical substance” value (yeast gene YMR097C, cultured two hours with substance) was 2.1, the “The level of expressed mRNA in the presence of chemical substance/The level of expressed mRNA in the absence of chemical substance” value (yeast gene YMR102C, cultured two hours with substance) was 0.7 and the “The level of expressed mRNA in the presence of chemical substance/The level of expressed mRNA in the absence of chemical substance” value (yeast gene YMR107W, cultured two hours with substance) was 8.1. For the same molecule, the “The level of expressed mRNA in the presence of chemical substance/The level of expressed mRNA in the absence of chemical substance” value (yeast gene YMR140W, cultured two hours with substance) was 1.2, the “The level of expressed mRNA in the presence of chemical substance/The level of expressed mRNA in the absence of chemical substance” value (yeast gene YMR180C, cultured two hours with substance) was 1.7 and the “The level of expressed mRNA in the presence of chemical substance/The level of expressed mRNA in the absence of chemical substance” value (yeast gene YMR184W, cultured two hours with substance) was 1.5. The “The level of expressed mRNA in the presence of chemical substance/The level of expressed mRNA in the absence of chemical substance” value (yeast gene YMR191W, cultured two hours with substance) was 1.5, the “The level of expressed mRNA in the presence of chemical substance/The level of expressed mRNA in the absence of chemical substance” value (yeast gene YMR195W, cultured two hours with substance) was 1.3 and the “The level of expressed mRNA in the presence of chemical substance/The level of expressed mRNA in the absence of chemical substance” value (yeast gene YMR295C, cultured two hours with substance) was 1.3.
